From US20120058499A1, “Bioluminescent Detection of Protease Activity” (priority 2010, published 2012)

Tests used:
SENP2 = SENP2 (Homo sapiens, UniProt Q9HC62); conditions: enzyme 200 pM; 30 minutes; FIG. 6
Protocol: (§1) The hSUMO2-amino-luciferin substrate was compared to the Z-Arg-Leu-Arg-Gly-Gly (SEQ ID NO: 1)-amino-luciferin substrate (Promega DUB-Glo™ substrate) to determine the specificity and limit of detection of the activities of six (6) different isopeptidases (USP34, USP7, USP8, SENP1, SENP2, and SENP6). For all enzymes, these two substrates were tested in parallel using the DUB-Glo™ assay system (Promega) according to the manufacturer's instructions. All enzymes were diluted into 50 mM HEPES, pH 7.5, 10 mM DTT, 0.1% Prionex® (Sigma-Aldrich). For testing Z-Arg-Leu-Arg-Gly-Gly (SEQ ID NO: 1)-amino-luciferin, final isopeptidase concentrations for all enzymes were equal to approximately 70 pM to 50 nM. For testing hSUMO2-amino-luciferin, final isopeptidase concentrations for all enzymes were equal to approximately 70 pM to 50 nM. […] The signal in relative luminescence units (RLUs) was measured at 30 minutes from reaction assembly on an EnVision™ multi-label plate reader (Perkin Elmer). The signal to background ratio (S/B) was calculated as (maximum signal/(signal in absence of enzyme) plus or minus the corrected standard deviation of triplicate measurements.

SENP6 = SENP6 (Homo sapiens, UniProt Q9GZR1); conditions: enzyme 200 pM; 30 minutes; FIG. 6
Protocol: as §1

[1] = tested on: UCHL3, USP2core, USP7, and USP8; assay: Limit of detection for four isopeptidases, Ub-LUC vs Ub-AMC and Ub-Rhodamine110; type: biochemical; conditions: the four enzymes
Protocol: The Ub-amino-luciferin substrate was compared to the Z-Arg-Leu-Arg-Gly-Gly (SEQ ID NO: 1)-amino-luciferin substrate (Promega DUB-Glo™ substrate) to determine the limit of detection of the activities of four different isopeptidases (UCHL3, USP2core, USP7, and USP8). For all enzymes, these two substrates were tested in parallel using the DUB-Glo™ assay system (Promega) according to the manufacturer's instructions. All enzymes were diluted into 50 mM HEPES, pH 7.5, 10 mM DTT, 0.1% Prionex (Sigma-Aldrich). […] The signal in relative luminescence units (RLUs) was measured at 30 minutes from reaction assembly on an Envision multi-label plate reader (Perkin Elmer). The signal to background ratio (S/B) was calculated as (maximum signal−signal in absence of enzyme)/(signal in absence of enzyme).
The Ub-amino-luciferin (Ub-LUC) substrate was compared to the Ub-AMC substrate (FIG. 3) and the Ub-Rhodamine110 (Ub-Rho) substrate (FIG. 4), to determine the limit of detection for the activities of four different isopeptidases (UCHL3, USP2core, USP7, and USP8). […] Reactions were assembled through the addition of 50 μl diluted isopeptidase to 50 μl of either Ub-AMC or Ub-Rhodamine110, and the signal in relative fluorescence units (RFUs) was measured at 30 minutes on an Envision multi-label plate reader (Perkin Elmer). […]

[2] = tested on: Otub2, JosD1, JosD2, AMSH, Ataxin3, Ataxin3-like, UCHL5, USP20, and USP14; assay: Substrate comparison on panel of nine isopeptidases; type: biochemical
Protocol: For Ub-AMC and Ub-Rhodamine110, all enzymes were diluted into 50 mM Tris, pH 8.0, 5 mM DTT, 0.05% CHAPS to a final concentration of 10 nM. […] Either Ub-AMC or Ub-Rhodamine110 (final reaction concentration equal to 250 nM) were diluted into 50 mM Tris, pH 8.0, 5 mM DTT, 0.05% (w/v) CHAPS. […] For Ub-Rhodamine110, fluorescence was monitored with filters corresponding to excitation at 485 nm and emission at 531 nm.

Sequence of SENP6 (Q9GZR1 whole entry, species assumed): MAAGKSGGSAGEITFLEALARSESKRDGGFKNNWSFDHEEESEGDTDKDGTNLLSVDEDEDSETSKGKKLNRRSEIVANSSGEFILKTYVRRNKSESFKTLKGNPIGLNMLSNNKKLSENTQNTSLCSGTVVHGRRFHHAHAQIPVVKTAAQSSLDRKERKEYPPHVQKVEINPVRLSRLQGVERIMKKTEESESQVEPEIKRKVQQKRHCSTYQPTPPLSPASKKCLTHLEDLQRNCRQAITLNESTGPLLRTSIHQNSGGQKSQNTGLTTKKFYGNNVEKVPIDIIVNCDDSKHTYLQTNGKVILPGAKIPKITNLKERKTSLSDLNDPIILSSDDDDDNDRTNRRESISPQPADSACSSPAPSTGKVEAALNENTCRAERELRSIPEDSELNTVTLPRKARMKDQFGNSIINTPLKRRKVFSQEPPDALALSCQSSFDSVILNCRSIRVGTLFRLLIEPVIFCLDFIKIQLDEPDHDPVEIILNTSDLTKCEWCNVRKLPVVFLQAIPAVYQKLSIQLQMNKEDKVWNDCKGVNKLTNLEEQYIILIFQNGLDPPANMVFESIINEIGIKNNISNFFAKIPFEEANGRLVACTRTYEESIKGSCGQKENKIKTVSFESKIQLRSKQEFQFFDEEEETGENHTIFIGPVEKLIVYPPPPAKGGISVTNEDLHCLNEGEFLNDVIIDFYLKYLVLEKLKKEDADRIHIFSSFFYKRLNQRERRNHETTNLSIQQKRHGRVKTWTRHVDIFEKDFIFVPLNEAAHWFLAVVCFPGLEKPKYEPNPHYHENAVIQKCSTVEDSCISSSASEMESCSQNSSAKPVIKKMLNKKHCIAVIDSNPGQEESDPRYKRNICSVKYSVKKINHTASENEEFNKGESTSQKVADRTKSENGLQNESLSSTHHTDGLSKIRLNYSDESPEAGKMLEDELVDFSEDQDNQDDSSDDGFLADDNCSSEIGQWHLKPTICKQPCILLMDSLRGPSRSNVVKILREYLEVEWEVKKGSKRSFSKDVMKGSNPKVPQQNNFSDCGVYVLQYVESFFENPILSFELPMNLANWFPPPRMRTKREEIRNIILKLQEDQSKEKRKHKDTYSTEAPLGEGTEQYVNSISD
Sequence of SENP2 (Q9HC62 whole entry, species assumed): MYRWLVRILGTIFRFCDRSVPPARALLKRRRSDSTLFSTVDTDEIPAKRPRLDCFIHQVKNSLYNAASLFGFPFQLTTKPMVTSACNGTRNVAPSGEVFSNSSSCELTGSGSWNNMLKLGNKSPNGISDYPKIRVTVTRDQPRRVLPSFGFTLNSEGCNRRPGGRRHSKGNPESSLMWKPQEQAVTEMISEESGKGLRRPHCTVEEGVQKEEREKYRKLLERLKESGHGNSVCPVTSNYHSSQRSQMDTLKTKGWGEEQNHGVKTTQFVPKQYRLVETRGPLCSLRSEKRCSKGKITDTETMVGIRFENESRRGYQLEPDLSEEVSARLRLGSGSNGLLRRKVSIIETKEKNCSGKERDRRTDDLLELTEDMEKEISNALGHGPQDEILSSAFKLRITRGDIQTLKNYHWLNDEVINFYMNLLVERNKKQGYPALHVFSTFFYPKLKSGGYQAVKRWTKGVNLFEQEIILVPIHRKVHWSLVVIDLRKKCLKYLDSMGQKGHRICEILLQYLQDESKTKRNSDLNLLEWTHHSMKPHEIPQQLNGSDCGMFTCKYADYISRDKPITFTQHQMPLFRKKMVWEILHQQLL

Substance | signal (RLU, S/B) (SENP2) | signal (RLU, S/B) (SENP6) | fold greater S/B compared to Ub-rhodamine110 [1] | limit of detection (S/B>3) increased over Ub-rhodamine110 [1] | S/B towards Ub-amino-luciferin, fold higher than Ub-AMC / Ub-Rhodamine110 ([2]; equivalent molar concentrations, seven of nine DUBs (exceptions JosD2 and UCHL5)) | fold greater S/B compared to Z-RLRGG-amino-luciferin (DUB-Glo reagent) ([2]; range over panel of 9 isopeptidases, 10 nM)
Z-Arg-Leu-Arg-Gly-Gly (SEQ ID NO: 1)-amino-luciferin [DUB-glo ™] | gave signals | gave signals | – | – | – | –
Ub(1-76)-aminoluciferin [Ub-LUC] | – | – | more than 30 fold | more than 30 fold | 10-1000 fold | 10-1000 fold
